Several values for one entry are separate records, joined by “and”; a condition that tells them apart may be missing. Identical values can stand only once.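 Where inhibition never reached the appropriate level, the endpoint shown equals the highest concentration tested. Otherwise, values were interpolated linearly from a five-concentration, 48-hour dose response in 96-well plates. GI50 marks 50% less growth. At the TGI there is no net growth.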 Numbered stars: 1 amine (or outer) side, 2 acyl side, 3 side chain; on linkers, the order of the positions; unused ones are H or OH. Bridge positions count the residues as written; N and C are the ends. Square brackets hold non-standard residues; d marks the D form. Peptide text beside a SMILES is read from it. I, II: the chains in the order shown. Actinocin(1to9) = Cc1c2oc3c(C)ccc(C(=O)[*:2])c3nc-2c(C(=O)[*:1])c(N)c1=O; NMeV = CN[CH](C(=O)O)C(C)C; Sar = CNCC(=O)O
How the values were obtained:
Experiment in all cases: NCI-60 cell line screen, 48 h
786-0 renal = system: 786-0 renal
A498 renal = system: A498 renal
A549 NSCLC = system: A549 NSCLC
ACHN renal = system: ACHN renal
CAKI-1 renal = system: CAKI-1 renal
CCRF-CEM leukemia = system: CCRF-CEM leukemia
COLO 205 colon = system: COLO 205 colon
DU-145 prostate = system: DU-145 prostate
EKVX NSCLC = system: EKVX NSCLC
HCC-2998 colon = system: HCC-2998 colon
HCT-116 colon = system: HCT-116 colon
HCT-15 colon = system: HCT-15 colon
HL-60(TB) leukemia = system: HL-60(TB) leukemia
HOP-62 NSCLC = system: HOP-62 NSCLC
HOP-92 NSCLC = system: HOP-92 NSCLC
HS 578T breast = system: HS 578T breast
HT29 colon = system: HT29 colon
IGROV1 ovarian = system: IGROV1 ovarian
K-562 leukemia = system: K-562 leukemia
KM12 colon = system: KM12 colon
LOX IMVI melanoma = system: LOX IMVI melanoma
M14 melanoma = system: M14 melanoma
MALME-3M melanoma = system: MALME-3M melanoma
MCF7 breast = system: MCF7 breast
MDA-MB-231 breast = system: MDA-MB-231 breast
MDA-MB-435 = system: MDA-MB-435
MDA-N = system: MDA-N
MOLT-4 leukemia = system: MOLT-4 leukemia
NCI-H226 lung = system: NCI-H226 lung
NCI-H23 lung = system: NCI-H23 lung
NCI-H460 lung = system: NCI-H460 lung
NCI-H522 lung = system: NCI-H522 lung
NCI/ADR-RES ovarian = system: NCI/ADR-RES ovarian
OVCAR-3 ovarian = system: OVCAR-3 ovarian
OVCAR-4 ovarian = system: OVCAR-4 ovarian
OVCAR-5 ovarian = system: OVCAR-5 ovarian
OVCAR-8 ovarian = system: OVCAR-8 ovarian
PC-3 prostate = system: PC-3 prostate
RPMI-8226 leukemia = system: RPMI-8226 leukemia
RXF 393 renal = system: RXF 393 renal
SF-268 CNS = system: SF-268 CNS
SF-295 CNS = system: SF-295 CNS
SF-539 CNS = system: SF-539 CNS
SK-MEL-28 melanoma = system: SK-MEL-28 melanoma
SK-MEL-5 melanoma = system: SK-MEL-5 melanoma
SK-OV-3 ovarian = system: SK-OV-3 ovarian
SN12C renal = system: SN12C renal
SNB-19 CNS = system: SNB-19 CNS
SW-620 colon = system: SW-620 colon
T-47D breast = system: T-47D breast
TK-10 renal = system: TK-10 renal
U251 CNS = system: U251 CNS
UACC-257 melanoma = system: UACC-257 melanoma
UACC-62 melanoma = system: UACC-62 melanoma
UO-31 renal = system: UO-31 renal
BT-549 breast = system: BT-549 breast
SK-MEL-2 melanoma = system: SK-MEL-2 melanoma
SNB-75 CNS = system: SNB-75 CNS
SR leukemia = system: SR leukemia

Which results are given for `CCOC(=O)C(C(=O)OCC)C(NC(=O)Nc1cc(C(F)(F)F)ccc1OC)(C(F)(F)F)C(F)(F)F`?
TGI (786-0 renal): 55.8 µM; TGI (A498 renal): 31.9 µM; TGI (A549 NSCLC): > 100 µM; TGI (ACHN renal): > 100 µM; TGI (CAKI-1 renal): 91.5 µM; TGI (CCRF-CEM leukemia): 70.9 µM; TGI (COLO 205 colon): 32.3 µM; TGI (DU-145 prostate): > 100 µM; TGI (EKVX NSCLC): > 100 µM; TGI (HCC-2998 colon): 85 µM; TGI (HCT-116 colon): > 100 µM; TGI (HCT-15 colon): > 100 µM; TGI (HL-60(TB) leukemia): 48.9 µM; TGI (HOP-62 NSCLC): 56.6 µM; TGI (HOP-92 NSCLC): 55.8 µM; TGI (HS 578T breast): > 100 µM; TGI (HT29 colon): 92.1 µM; TGI (IGROV1 ovarian): 96.9 µM; TGI (K-562 leukemia): 74.5 µM; TGI (KM12 colon): 66.1 µM; TGI (LOX IMVI melanoma): > 100 µM; TGI (M14 melanoma): 45 µM; TGI (MALME-3M melanoma): 51.2 µM; TGI (MCF7 breast): > 100 µM; TGI (MDA-MB-231 breast): 39.7 µM; TGI (MDA-MB-435): 43.8 µM; TGI (MDA-N): > 100 µM; TGI (MOLT-4 leukemia): 68.6 µM; TGI (NCI-H226 lung): 72.4 µM; TGI (NCI-H23 lung): 85.6 µM; TGI (NCI-H460 lung): > 100 µM; TGI (NCI-H522 lung): 55.9 µM; TGI (NCI/ADR-RES ovarian): 75.9 µM; TGI (OVCAR-3 ovarian): 54.3 µM; TGI (OVCAR-4 ovarian): 98.6 µM; TGI (OVCAR-5 ovarian): > 100 µM; TGI (OVCAR-8 ovarian): > 100 µM; TGI (PC-3 prostate): > 100 µM; TGI (RPMI-8226 leukemia): 56.8 µM; TGI (RXF 393 renal): 62.3 µM; TGI (SF-268 CNS): > 100 µM; TGI (SF-295 CNS): 84.8 µM; TGI (SF-539 CNS): 36.2 µM; TGI (SK-MEL-28 melanoma): > 100 µM; TGI (SK-MEL-5 melanoma): 39.6 µM; TGI (SK-OV-3 ovarian): > 100 µM; TGI (SN12C renal): 74.2 µM; TGI (SNB-19 CNS): > 100 µM; TGI (SW-620 colon): > 100 µM; TGI (T-47D breast): > 100 µM; TGI (TK-10 renal): > 100 µM; TGI (U251 CNS): 59.1 µM; TGI (UACC-257 melanoma): 94.1 µM; TGI (UACC-62 melanoma): 88.8 µM; TGI (UO-31 renal): 39.5 µM

Which TGI (786-0 renal) does the source give for `CCC(C)C1NC(=O)C(NC(=O)c2c3nc4c(C(=O)NC5C(=O)NC(C(C)C)C(=O)N6CCCC6C(=O)N(C)CC(=O)N(C)C(C(C)C)C(=O)OC5C)ccc(C)c4oc-3c(C)c(=O)c2N)C(C)OC(=O)C(C(C)C)N(C)C(=O)CN(C)C(=O)C2CCCN2C1=O` (stereo not given) (I: TIP[Sar][NMeV] / II: TVP[Sar][NMeV]; ester I:1-I:C, II:1-II:C; linker I:N-II:N via Actinocin(1to9); configuration not given here) here?
The TGI was 0.141 µM and 0.669 µM.

What about the TGI (A498 renal) of the same compound?
The TGI was 0.00433 µM.

And the TGI (A549 NSCLC)?
Its TGI is 13.9 µM.

And the TGI (ACHN renal)?
The TGI was 0.0377 µM and 0.0261 µM.

What about the TGI (BT-549 breast) of the same compound?
Its TGI is 0.0627 µM.

And the TGI (COLO 205 colon)?
Its TGI is 0.0163 µM.

What about the TGI (DU-145 prostate) of the same compound?
Its TGI is 0.71 µM.

And the TGI (EKVX NSCLC)?
Its TGI is 0.179 µM and 0.0919 µM.

And the TGI (HCT-116 colon)?
Its TGI is 4.8 µM.

And the TGI (HCT-15 colon)?
Its TGI is 14.2 µM.

What about the TGI (HL-60(TB) leukemia) of the same compound?
The TGI was 0.163 µM.

And the TGI (HOP-92 NSCLC)?
Its TGI is 0.0476 µM.

And the TGI (HS 578T breast)?
The TGI was 0.363 µM.

And the TGI (IGROV1 ovarian)?
Its TGI is 0.906 µM.

What about the TGI (K-562 leukemia) of the same compound?
Its TGI is 0.105 µM.

What about the TGI (KM12 colon) of the same compound?
Its TGI is 0.191 µM.

What about the TGI (M14 melanoma) of the same compound?
The TGI was 0.161 µM.

What about the TGI (MALME-3M melanoma) of the same compound?
Its TGI is 0.028 µM.

And the TGI (MCF7 breast)?
Its TGI is > 100 µM.

And the TGI (MDA-MB-231 breast)?
Its TGI is 0.0753 µM and 0.261 µM.

And the TGI (MDA-MB-435)?
Its TGI is 0.0302 µM.

What about the TGI (MDA-N) of the same compound?
The TGI was 0.0244 µM.

And the TGI (MOLT-4 leukemia)?
Its TGI is 0.0667 µM and 0.0163 µM.

And the TGI (NCI-H226 lung)?
The TGI was 0.153 µM.

And the TGI (NCI-H23 lung)?
Its TGI is 0.0553 µM and 0.0126 µM.

And the TGI (NCI-H522 lung)?
Its TGI is 0.0158 µM.

What about the GI50 (NCI/ADR-RES ovarian) of the same compound?
Its GI50 is 0.0239 µM.

What about the TGI (NCI/ADR-RES ovarian) of the same compound?
The TGI was 3.56 µM.

And the TGI (OVCAR-4 ovarian)?
The TGI was 0.739 µM.

And the TGI (OVCAR-5 ovarian)?
The TGI was 0.0132 µM.

And the TGI (PC-3 prostate)?
Its TGI is 0.0947 µM and 0.0301 µM.

And the TGI (RPMI-8226 leukemia)?
The TGI was 0.0323 µM.

And the TGI (RXF 393 renal)?
Its TGI is 0.0102 µM.

What about the TGI (SF-539 CNS) of the same compound?
The TGI was 0.107 µM.

And the TGI (SK-MEL-2 melanoma)?
Its TGI is 0.111 µM.

And the TGI (SK-MEL-28 melanoma)?
Its TGI is 0.0409 µM.

And the TGI (SK-MEL-5 melanoma)?
The TGI was 0.111 µM.

And the TGI (SK-OV-3 ovarian)?
Its TGI is 13.2 µM.

What about the TGI (SN12C renal) of the same compound?
Its TGI is 0.498 µM.

What about the TGI (SNB-19 CNS) of the same compound?
The TGI was 1.23 µM.

And the TGI (SNB-75 CNS)?
The TGI was 0.579 µM.

What about the TGI (SR leukemia) of the same compound?
Its TGI is 0.404 µM.

What about the TGI (TK-10 renal) of the same compound?
Its TGI is 17.9 µM.

And the TGI (U251 CNS)?
The TGI was 10.1 µM.

And the TGI (UACC-257 melanoma)?
The TGI was 0.0266 µM.
